Laboratory results published in US20140322434A1, “METHODS FOR PRODUCING ELECTROPHOTOGRAPHIC PHOTOSENSITIVE MEMBER AND ORGANIC DEVICE EACH HAVING CHARGE TRANSPORTING LAYER” (CANON KABUSHIKI KAISHA, priority 2011, published 2014).
Like-named read-outs stand apart in the source and are kept apart here.

What was measured:
[1] = Solubility in water at 25° C. and 1 atm
Experimental: In the method for producing an electrophotographic photosensitive member of the present invention, the charge transporting substance and the binder resin are dissolved in the first liquid to prepare the first solution. […] Specific examples of the first liquid are shown in Table 1, but are not limited to the examples in Table 1.
Then, the second solution will be described.

[2] = Solubility of second liquid in the first liquid at 25° C. and 1 atm; settings: for solubility in first solution: liquids of Comparative Examples 5 to 11; for Solubility in first liquid: first liquid described in Table 1
[3] = liquids of Comparative Examples 5 to 11, 25° C. and 1 atm
[4] = second liquid, 25° C. and 1 atm

Row | Compound | Solubility in first liquid [2] [mass % or] | also measured
1 | Clc1ccccc1Cl [First liquid example (3), o-Dichlorobenzene] | – | Solubility in water [1]: 0.0 mass %
2 | Clc1ccccc1 [First liquid example (4), Chlorobenzene] | – | Solubility in water ([1]; first liquid, 25° C. and 1 atm): 0.1 mass %
3 | Cc1ccccc1C [First liquid example (5), o-Xylene] | – | Solubility in water ([1]; first liquid, 25° C. and 1 atm): 0.0 mass %
4 | CCc1ccccc1 [First liquid example (6), Ethylbenzene] | – | Solubility in water ([1]; first liquid, 25° C. and 1 atm): 0.0 mass %
5 | CCOc1ccccc1 [First liquid example (7), Phenetole] | – | Solubility in water ([1]; first liquid, 25° C. and 1 atm): 0.1 mass %
6 | OCCOCCOc1ccccc1 [Liquid (2), diethylene glycol monophenyl ether, reference compound] | – | Solubility in water [1, 3]: 3.4 mass %; solubility in first solution [2]: ≥ 5.0 mass %
7 | CC(=O)OC(C)C [Liquid (4), isopropyl acetate, reference compound] | – | Solubility in water [1]: 2.9 mass %
8 | CCCCOC(C)COC(C)COC(C)CO (stereo not drawn) [Liquid (5), tripropylene glycol n-butyl ether, reference compound] | – | Solubility in water [1, 3]: 2.9 mass %; solubility in first solution [2]: ≥ 5.0 mass %
9 | CC(=O)OCCCCOC(C)=O [Liquid (6), 1,4-butanediol diacetate, reference compound] | – | Solubility in water [1, 3]: 4.2 mass %; solubility in first solution [2]: ≥ 5.0 mass %
10 | COCOC [Second liquid example (2), dimethoxymethane] | 5.0 | Solubility in water [1, 4]: 32.3 mass %
11 | C1CCOOC1 [Second liquid example (3), 1,2-dioxane] | 5.0 | –
12 | C1COCOC1 [Second liquid example (4), 1,3-dioxane] | 5.0 | –
13 | C1OCOCO1 [Second liquid example (6), 1,3,5-trioxane] | 5.0 | Solubility in water [1, 4]: 21.1 mass %
14 | CCCC(C)=O [Second liquid example (8), 2-pentanone] | 5.0 | Solubility in water [1, 4]: 5.9 mass %
15 | COCCOCCOC [Second liquid example (11), diethylene glycol dimethyl ether] | 5.0 | –
16 | COCCOC [Second liquid example (12), ethylene glycol dimethyl ether] | 5.0 | –
17 | CCCCOCC(C)O (stereo not drawn) [Second liquid example (13), propylene glycol n-butyl ether] | 5.0 | Solubility in water [1, 4]: 6.0 mass %

Row | Compound | Solubility in first liquid [2] [mass % or] | also measured
18 | CCCOCC(C)O (stereo not drawn) [Second liquid example (14), propylene glycol monopropyl ether] | 5.0 | –
19 | CCOCCOCCO [Second liquid example (16), diethylene glycol monoethyl ether] | 5.0 | –
20 | CC(C)COCCO [Second liquid example (19), ethylene glycol monoisobutyl ether] | 5.0 | –
21 | C=CCOCCO [Second liquid example (20), ethylene glycol monoallyl ether] | 5.0 | –
22 | COCC(C)O (stereo not drawn) [Second liquid example (21), propylene glycol monomethyl ether] | 5.0 | –
23 | COC(C)COC(C)CO (stereo not drawn) [Second liquid example (22), dipropylene glycol monomethyl ether] | 5.0 | –
24 | COC(C)COC(C)COC(C)CO (stereo not drawn) [Second liquid example (23), tripropylene glycol monomethyl ether] | 5.0 | –
25 | CCCCOCC(C)O (stereo not drawn) [Second liquid example (24), propylene glycol monobutyl ether] | 5.0 | Solubility in water [1, 4]: 6.4 mass %
26 | COCC(C)OC(C)=O (stereo not drawn) [Second liquid example (25), propylene glycol monomethyl ether acetate] | 5.0 | Solubility in water [1, 4]: 20.5 mass %
27 | CCOCCOCCOC [Second liquid example (26), diethylene glycol methyl ethyl ether] | 5.0 | –
28 | CCOCCOCCOCC [Second liquid example (27), diethylene glycol diethyl ether] | 5.0 | –
29 | COCC(C)OCC(C)OC (stereo not drawn) [Second liquid example (28), dipropylene glycol dimethyl ether] | 5.0 | –
30 | CC(=O)OCC(C)OC(C)=O (stereo not drawn) [Second liquid example (29), propylene glycol diacetate] | 5.0 | –
31 | CCOC(C)=O [Second liquid example (31), ethyl acetate] | 5.0 | –
32 | COC(C)CCO (stereo not drawn) [Second liquid example (33), 3-methoxybutanol] | 5.0 | –
33 | COC(C)CCOC(C)=O (stereo not drawn) [Second liquid example (34), 3-methoxybutyl acetate] | 5.0 | –
